Patent US9670227B2, “Thienopyrimidine derivatives, a process for their preparation and pharmaceutical compositions containing them” (LES LABORATOIRES SERVIER, priority 2013, dated 2017)
Where two headings read alike, the source gives them in different places.

Key:
Mcl-1 protein = Mcl-1 protein (UniProtKB primary accession number: Q07820) (Homo sapiens, UniProt Q07820); assay: Inhibition of Mcl-1 by fluorescence polarisation, Method 1; format: binding; conditions: fluorescence polarisation; Method 1, or Method 2; read-out: IC50 (M) Mcl-1 FP
Mcl-1 protein, sequence (Q07820 whole entry): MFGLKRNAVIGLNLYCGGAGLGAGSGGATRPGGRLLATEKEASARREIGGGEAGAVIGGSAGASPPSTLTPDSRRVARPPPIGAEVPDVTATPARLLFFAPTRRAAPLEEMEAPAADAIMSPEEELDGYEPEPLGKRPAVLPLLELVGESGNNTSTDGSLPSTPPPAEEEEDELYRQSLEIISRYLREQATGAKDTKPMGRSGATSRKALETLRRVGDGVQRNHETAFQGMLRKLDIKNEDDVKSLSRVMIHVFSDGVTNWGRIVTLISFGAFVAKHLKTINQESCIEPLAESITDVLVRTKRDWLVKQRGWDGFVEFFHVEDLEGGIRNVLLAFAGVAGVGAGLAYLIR
Procedure, shortened: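 Fluorescence polarisation competition with an 11-point compound dilution series (final DMSO 5%). Mcl-1 protein at 5 nM and fluorescein-labelled ligand at 1 nM (final) in 10 mM HEPES, 150 mM NaCl, 0.05% Tween 20, pH 7.4.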

[1] = tested on: H929 multiple myeloma tumour line; assay: In vitro cytotoxicity, Microculture Tetrazolium Assay; format: cell-based; conditions: H929 cells, 48 hours exposure, MTT, read-out: IC50 (μM) MTT H929
Method: The cytotoxicity studies were carried out on the H929 multiple myeloma tumour line.
The cells are distributed onto microplates and exposed to the test compounds for 48 hours.

## Cc1c(-c2c(-c3cccn3C)sc3ncnc(OC(Cc4ccccc4)C(=O)O)c23)ccc(OCCN2CCN(C)CC2)c1Cl [Example 503, (2R)-2-{[(5Sa)-5-{3-chloro-2-methyl-4-[2-(4-methylpiperazin-1-yl)ethoxy]phenyl}-6-(1-methyl-1H-pyrrol-2-yl)thieno[2,3-d]pyrimidin-4-yl]oxy}-3-phenylpropanoic acid]
Mcl-1 protein
  IC50: 5e-07 M
[1]; Homo sapiens, NCI-H929, 48 h
  IC50: 7.02 µM

## Cc1c(-c2c(-c3ccn(C)n3)sc3ncnc(OC(Cc4ccccc4)C(=O)O)c23)ccc(OCCN2CCN(C)CC2)c1Cl [Example 506, (2R)-2-{[(5Sa)-5-{3-chloro-2-methyl-4-[2-(4-methylpiperazin-1-yl)ethoxy]phenyl}-6-(1-methyl-1H-pyrazol-3-yl)thieno[2,3-d]pyrimidin-4-yl]oxy}-3-phenylpropanoic acid]
Mcl-1 protein
  IC50: 7.5e-08 M
[1]; Homo sapiens, NCI-H929, 48 h
  IC50: 8.29 µM

## Cc1c(-c2c(-c3ccoc3)sc3ncnc(OC(Cc4ccccc4)C(=O)O)c23)ccc(OCCN2CCN(C)CC2)c1Cl [Example 509, (2R)-2-{[(5Sa)-5-{3-chloro-2-methyl-4-[2-(4-methylpiperazin-1-yl)ethoxy]phenyl}-6-(furan-3-yl)thieno[2,3-d]pyrimidin-4-yl]oxy}-3-phenylpropanoic acid]
Mcl-1 protein
  IC50: 6.2e-08 M
[1]; Homo sapiens, NCI-H929, 48 h
  IC50: 1.46 µM

## Cc1c(-c2c(-c3ccsc3)sc3ncnc(OC(Cc4ccccc4)C(=O)O)c23)ccc(OCCN2CCN(C)CC2)c1Cl [Example 510, (2R)-2-{[(5Sa)-5-{3-chloro-2-methyl-4-[2-(4-methylpiperazin-1-yl)ethoxy]phenyl}-6-(thiophen-3-yl)thieno[2,3-d]pyrimidin-4-yl]oxy}-3-phenylpropanoic acid]
Mcl-1 protein
  IC50: 3.9e-08 M
[1]; Homo sapiens, NCI-H929, 48 h
  IC50: 0.639 µM

## Cc1c(-c2c(-c3cncs3)sc3ncnc(OC(Cc4ccccc4)C(=O)O)c23)ccc(OCCN2CCN(C)CC2)c1Cl [Example 512, (2R)-2-{[(5Sa)-5-{3-chloro-2-methyl-4-[2-(4-methylpiperazin-1-yl)ethoxy]phenyl}-6-(1,3-thiazol-5-yl)thieno[2,3-d]pyrimidin-4-yl]oxy}-3-phenylpropanoic acid]
Mcl-1 protein
  IC50: 1.3e-07 M
[1]; Homo sapiens, NCI-H929, 48 h
  IC50: 7.42 µM

## Cc1cc(-c2sc3ncnc(OC(Cc4ccccc4)C(=O)O)c3c2-c2ccc(OCCN3CCN(C)CC3)c(Cl)c2C)cs1 [Example 514, (2R)-2-{[(5Sa)-5-{3-chloro-2-methyl-4-[2-(4-methylpiperazin-1-yl)ethoxy]phenyl}-6-(5-methylthiophen-3-yl)thieno[2,3-d]pyrimidin-4-yl]oxy}-3-phenylpropanoic acid]
Mcl-1 protein
  IC50: 9.6e-08 M
[1]; Homo sapiens, NCI-H929, 48 h
  IC50: 1.7 µM

## Cc1cscc1-c1sc2ncnc(O[C@H](Cc3ccccc3)C(=O)O)c2c1-c1ccc(OCCN2CCN(C)CC2)c(Cl)c1C [Example 516, (2R)-2-{[(5Sa)-5-{3-chloro-2-methyl-4-[2-(4-methylpiperazin-1-yl)ethoxy]phenyl}-6-(4-methylthiophen-3-yl)thieno[2,3-d]pyrimidin-4-yl]oxy}-3-phenylpropanoic acid]
Mcl-1 protein
  IC50: 1.3e-07 M
[1]
  IC50: 5.07 µM

## Cc1c(-c2c(Br)sc3ncnc(OC(Cc4ccccc4)C(=O)O)c23)ccc(OCCN2CCN(C)CC2)c1Cl [Example 518, (2R)-2-[(6-bromo-(5Sa)-5-{3-chloro-2-methyl-4-[2-(4-methylpiperazin-1-yl)ethoxy]phenyl}thieno[2,3-d]pyrimidin-4-yl)oxy]-3-phenylpropanoic acid]
Mcl-1 protein
  IC50: 3.5e-08 M
[1]; Homo sapiens, NCI-H929, 48 h
  IC50: 9.18 µM

## COc1ccccc1CC(Oc1ncnc2sc(-c3cc(F)c(F)c(F)c3)c(-c3ccc(OCCN4CCN(C)CC4)c(Cl)c3C)c12)C(=O)O [Example 523, (2R)-2-{[(5Sa)-5-{3-chloro-2-methyl-4-[2-(4-methylpiperazin-1-yl)ethoxy]phenyl}-6-(3,4,5-trifluorophenyl)thieno[2,3-d]pyrimidin-4-yl]oxy}-3-(2-methoxyphenyl)propanoic acid]
Mcl-1 protein
  IC50: 1.8e-09 M
[1]; Homo sapiens, NCI-H929, 48 h
  IC50: 0.532 µM

## COc1ccccc1CC(Oc1ncnc2sc(-c3cc(F)c(F)c(OC)c3)c(-c3ccc(OCCN4CCN(C)CC4)c(Cl)c3C)c12)C(=O)O [Example 524, (2R)-2-{[(5Sa)-5-{3-chloro-2-methyl-4-[2-(4-methylpiperazin-1-yl)ethoxy]phenyl}-6-(3,4-difluoro-5-methoxyphenyl)thieno[2,3-d]pyrimidin-4-yl]oxy}-3-(2-methoxyphenyl)propanoic acid]
Mcl-1 protein
  IC50: 3.1e-08 M
[1]; Homo sapiens, NCI-H929, 48 h
  IC50: 0.417 µM

## COc1ccccc1CC(Oc1ncnc2sc(-c3cc(F)c(F)c(F)c3F)c(-c3ccc(OCCN4CCN(C)CC4)c(Cl)c3C)c12)C(=O)O [Example 525, (2R)-2-{[(5Sa)-5-{3-chloro-2-methyl-4-[2-(4-methylpiperazin-1-yl)ethoxy]phenyl}-6-(2,3,4,5-tetrafluorophenyl)thieno[2,3-d]pyrimidin-4-yl]oxy}-3-(2-methoxyphenyl)propanoic acid]
Mcl-1 protein
  IC50: 3.3e-09 M
[1]; Homo sapiens, NCI-H929, 48 h
  IC50: 0.755 µM

## COc1ccccc1CC(Oc1ncnc2sc(-c3cc(F)cc(Cl)c3)c(-c3ccc(OCCN4CCN(C)CC4)c(Cl)c3C)c12)C(=O)O [Example 526, (2R)-2-{[6-(3-chloro-5-fluorophenyl)-(5Sa)-5-{3-chloro-2-methyl-4-[2-(4-methylpiperazin-1-yl)ethoxy]phenyl}thieno[2,3-d]pyrimidin-4-yl]oxy}-3-(2-methoxyphenyl)propanoic acid]
Mcl-1 protein
  IC50: 4.1e-09 M
[1]; Homo sapiens, NCI-H929, 48 h
  IC50: 0.835 µM

## COc1ccccc1CC(Oc1ncnc2sc(-c3cc(F)cc(F)c3)c(-c3ccc(OCCN4CCN(C)CC4)c(Cl)c3C)c12)C(=O)O [Example 527, (2R)-2-{[(5Sa)-5-{3-chloro-2-methyl-4-[2-(4-methylpiperazin-1-yl)ethoxy]phenyl}-6-(3,5-difluorophenyl)thieno[2,3-d]pyrimidin-4-yl]oxy}-3-(2-methoxyphenyl)propanoic acid]
Mcl-1 protein
  IC50: 7.1e-08 M
[1]; Homo sapiens, NCI-H929, 48 h
  IC50: 0.272 µM

## COc1cc(F)cc(-c2sc3ncnc(OC(Cc4ccccc4OC)C(=O)O)c3c2-c2ccc(OCCN3CCN(C)CC3)c(Cl)c2C)c1 [Example 528, (2R)-2-{[(5Sa)-5-{3-chloro-2-methyl-4-[2-(4-methylpiperazin-1-yl)ethoxy]phenyl}-6-(3-fluoro-5-methoxyphenyl)thieno[2,3-d]pyrimidin-4-yl]oxy}-3-(2-methoxyphenyl)propanoic acid]
Mcl-1 protein
  IC50: 1.6e-08 M
[1]; Homo sapiens, NCI-H929, 48 h
  IC50: 0.334 µM

## COc1ccccc1CC(Oc1ncnc2sc(-c3cc(C)co3)c(-c3ccc(OCCN4CCN(C)CC4)c(Cl)c3C)c12)C(=O)O [Example 529, (2R)-2-{[(5Sa)-5-{3-chloro-2-methyl-4-[2-(4-methylpiperazin-1-yl)ethoxy]phenyl}-6-(4-methylfuran-2-yl)thieno[2,3-d]pyrimidin-4-yl]oxy}-3-(2-methoxyphenyl)propanoic acid]
Mcl-1 protein
  IC50: 1.3e-08 M
[1]; Homo sapiens, NCI-H929, 48 h
  IC50: 0.308 µM

## COc1ccccc1CC(Oc1ncnc2sc(-c3cc4sccc4s3)c(-c3ccc(OCCN4CCN(C)CC4)c(Cl)c3C)c12)C(=O)O [Example 530, (2R)-2-{[(5Sa)-5-{3-chloro-2-methyl-4-[2-(4-methylpiperazin-1-yl)ethoxy]phenyl}-6-(thieno[3,2-b]thiophen-2-yl)thieno[2,3-d]pyrimidin-4-yl]oxy}-3-(2-methoxyphenyl)propanoic acid]
Mcl-1 protein
  IC50: 1.2e-07 M
[1]; Homo sapiens, NCI-H929, 48 h
  IC50: 1.59 µM

## COc1ccccc1CC(Oc1ncnc2sc(-c3ccc(F)c(C(F)(F)F)c3)c(-c3ccc(OCCN4CCN(C)CC4)c(Cl)c3C)c12)C(=O)O [Example 531, (2R)-2-[(5Sa)-(5-{3-chloro-2-methyl-4-[2-(4-methylpiperazin-1-yl)ethoxy]phenyl}-6-[4-fluoro-3-(trifluoromethyl)phenyl]thieno[2,3-d]pyrimidin-4-yl)oxy]-3-(2-methoxyphenyl)propanoic acid]
Mcl-1 protein
  IC50: 3.5e-09 M
[1]; Homo sapiens, NCI-H929, 48 h
  IC50: 1.22 µM

## COc1ccccc1CC(Oc1ncnc2sc(-c3ccc(F)c(Cl)c3)c(-c3ccc(OCCN4CCN(C)CC4)c(Cl)c3C)c12)C(=O)O [Example 532, (2R)-2-{[6-(3-chloro-4-fluorophenyl)-(5Sa)-5-{3-chloro-2-methyl-4-[2-(4-methylpiperazin-1-yl)ethoxy]phenyl}thieno[2,3-d]pyrimidin-4-yl]oxy}-3-(2-methoxyphenyl)propanoic acid]
Mcl-1 protein
  IC50: 5.9e-08 M
[1]; Homo sapiens, NCI-H929, 48 h
  IC50: 0.323 µM

## COc1ccccc1C[C@@H](Oc1ncnc2sc(-c3ccc(F)c(F)c3)c(-c3ccc(OCCN4CCN(C)CC4)c(Cl)c3C)c12)C(=O)O [Example 533, (2R)-2-{[(5Sa)-5-{3-chloro-2-methyl-4-[2-(4-methylpiperazin-1-yl)ethoxy]phenyl}-6-(3,4-difluorophenyl)thieno[2,3-d]pyrimidin-4-yl]oxy}-3-(2-methoxyphenyl)propanoic acid]
Mcl-1 protein
  IC50: 2.8e-08 M
[1]
  IC50: 0.201 µM

## COc1ccccc1CC(Oc1ncnc2sc(-c3ccc(F)c(O)c3)c(-c3ccc(OCCN4CCN(C)CC4)c(Cl)c3C)c12)C(=O)O [Example 534, (2R)-2-{[(5Sa)-5-{3-chloro-2-methyl-4-[2-(4-methylpiperazin-1-yl)ethoxy]phenyl}-6-(4-fluoro-3-hydroxyphenyl)thieno[2,3-d]pyrimidin-4-yl]oxy}-3-(2-methoxyphenyl)propanoic acid]
Mcl-1 protein
  IC50: 1.6e-08 M
[1]; Homo sapiens, NCI-H929, 48 h
  IC50: 0.413 µM

## COc1ccccc1CC(Oc1ncnc2sc(-c3ccc(F)c(OCC(F)(F)F)c3)c(-c3ccc(OCCN4CCN(C)CC4)c(Cl)c3C)c12)C(=O)O [Example 535, (2R)-2-[(5Sa)-5-{3-chloro-2-methyl-4-[2-(4-methylpiperazin-1-yl)ethoxy]phenyl}-6-[4-fluoro-3-(2,2,2-trifluoroethoxy)phenyl]thieno[2,3-d]pyrimidin-4-yl)oxy]-3-(2-methoxyphenyl)propanoic acid]
Mcl-1 protein
  IC50: 1.3e-07 M
[1]; Homo sapiens, NCI-H929, 48 h
  IC50: 1.84 µM
